This note sets out measurements from patent publication US8846656B2, “Tetrahydropyrido-pyridine and tetrahydropyrido-pyrimidine compounds and use thereof as C5a receptor modulators” (Novartis AG, priority 2011, dated 2014).

Like-named read-outs stand apart in the source and are kept apart here.

As a reminder, the IC50 is the concentration at which inhibition is half-maximal.

For one assay, the target named is human C5aR (Homo sapiens (Human), UniProt P21730). The experiment in a line: FLIPR assay: inhibition of C5a-mediated calcium mobilization. Format: cell-based. The note with it: stable cell line over expressing human C5aR & Gα15, human C5a at EC50 (0.1-0.25 nM). The method, then:
Compounds were tested for their ability to inhibit C5a-mediated calcium mobilization using a stable cell line over expressing the human C5aR & the Gα15 protein on the FLIPR (Fluorescent Imaging Plate Reader) Tetra system. Cells were maintained in culture media containing DMEM (Dulbecco's Modified Eagle Medium) with 4.5 g/L glucose, 10% fetal bovine serum, 100 U/mL, 1× non-essential amino acid, and 250 μg/mL G418 (Geneticin). Prior to testing of compounds, cells were plated at 10,000 cells/well in clear bottom 384-well black plate, and incubated overnight at 37° C. with 5% CO2. On the day of experiment, culture media was removed, and replaced with assay buffer HBSS (Hanks' Balanced Salt Solution) with 20 mM HEPES (4-(2-hydroxyethyl)-1-piperazineethanesulfonic acid) and 0.1% BSA (bovine serum albumin) BSA containing calcium 5 dye (Molecular Devices) and 2.5 mM probenecid. After 1 hour incubation at 37° C., 5% CO2 for 60 min, cells were pre-incubated with compounds for 30 minutes at room temperature, in 1% DMSO (dimethyl sulfoxide).

Another assay deals with CD11b. The experiment in a line: Human whole blood CD11b up-regulation assay. Format: cell-based. The note with it: 2 nM human C5a, CD15+ granulocytes, read-out: hCD11b IC50. The method, then:
Whole blood was collected in sodium heparin tubes and the assay started within 2 hours of the blood draw. The blood was incubated with compounds in 1% DMSO (dimethyl sulfoxide) at room temperature for 10 minutes with gentle rocking. 2 nM of human C5a was then added for 15 minutes at room temperature with gentle rocking. Following the C5a incubation period cells were washed once with cold FACS (fluorescence-activated cell sorting) buffer (phosphate buffered saline+0.5% bovine serum albumin) FITC (fluorescein isothiocyanate) mouse anti-human CD15 and PE-Cy5 (phycoerythrin-cyanine 5) mouse anti-human CD11b antibodies (Becton Dickinson) were gently mixed with the cells and allowed to incubate for 30 minutes on ice protected from the light. Cells were then washed three times with cold FACS buffer. Red blood cells (RBC) were lysed by incubating with BD FACS lysis buffer (Becton Dickinson) for 10 minutes at room temperature. Cells were pelleted and the lysing procedure was repeated until all RBCs were lysed. The remaining leukocytes were resuspended in BD lysis buffer. Samples were acquired on the LSR^11 flow cytometer and 10,000 events of the CD15+ granulocyte population were collected. The CD11b median fluorescence intensity of the CD 15+ cell population was evaluated using FACSDiva software (Becton Dickinson).

human C5aR, sequence (P21730 whole entry): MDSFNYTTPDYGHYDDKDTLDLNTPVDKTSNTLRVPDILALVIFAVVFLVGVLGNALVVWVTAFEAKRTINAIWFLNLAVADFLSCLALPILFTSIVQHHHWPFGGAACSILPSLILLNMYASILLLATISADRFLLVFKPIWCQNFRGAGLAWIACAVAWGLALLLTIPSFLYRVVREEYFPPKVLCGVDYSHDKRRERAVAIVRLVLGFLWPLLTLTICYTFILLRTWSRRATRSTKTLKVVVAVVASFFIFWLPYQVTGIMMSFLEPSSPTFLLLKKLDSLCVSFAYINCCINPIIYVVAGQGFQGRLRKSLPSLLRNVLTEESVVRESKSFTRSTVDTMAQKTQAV

Take `Cc1ccc2[nH]nc(C)c2c1-c1nc2c(c(N3CC[C@H]4OC[C@H]4C3)n1)CN(c1c(Cl)c(C3CC3)nn1C)CC2` (racemic) [Example 69-M, (cis)-3-(6-(4-chloro-3-cyclopropyl-1-methyl-1H-pyrazol-5-yl)-2-(3,5-dimethyl-1H-indazol-4-yl)-5,6,7,8-tetrahydropyrido[4,3-d]pyrimidin-4-yl)-7-oxa-3-azabicyclo[4.2.0]octane]: the IC50 at human C5aR turned out to be 8 nM; with CD11b (Homo sapiens), 45 nM.

With `CO[C@@H]1CCN(c2nc(-c3c(C)ccc4[nH]nc(C)c34)nc3c2CN(c2c(F)c(C(F)F)nn2C)CC3)CC1(C)C` [Example 56-F, (R)-6-(3-(difluoromethyl)-4-fluoro-1-methyl-1H-pyrazol-5-yl)-2-(3,5-dimethyl-1H-indazol-4-yl)-4-(4-methoxy-3,3-dimethylpiperidin-1-yl)-5,6,7,8-tetrahydropyrido[4,3-d]pyrimidine], the IC50 at human C5aR came out at 1 nM; with CD11b (Homo sapiens) it was 11 nM.

For the molecule `Cc1ccc(C(C)C)cc1N1CCc2nc(-c3c(C)ccc4[nH]nc(C)c34)nc(N3CCC3C)c2C1` (single isomer, unassigned) [Example 65-I, 2-(3,5-dimethyl-1H-indazol-4-yl)-6-(5-isopropyl-2-methylphenyl)-4-(2-methylazetidin-1-yl)-5,6,7,8-tetrahydropyrido[4,3-d]pyrimidine], the results for the IC50 at human C5aR and with CD11b (Homo sapiens) were 1 nM and 19 nM, respectively.

Consider `CO[C@@H]1CCN(c2nc(-c3c(C)cccc3Cl)nc3c2CN(c2cc(C(C)C)ccc2C)CC3)C[C@H]1C` [Example 19-AH, 2-(2-chloro-6-methylphenyl)-6-(5-isopropyl-2-methylphenyl)-4-((3R,4R)-4-methoxy-3-methylpiperidin-1-yl)-5,6,7,8-tetrahydropyrido[4,3-d]pyrimidine], for which the IC50 at human C5aR is 4 nM; in the assay with CD11b (Homo sapiens), 17 nM.

Consider `CO[C@@H]1CCN(c2nc(-c3c(C)cncc3C)nc3c2CN(c2cc(C(C)C)ccc2C)CC3)CC1(C)C` [Example 21-M, (R)-2-(3,5-dimethylpyridin-4-yl)-6-(5-isopropyl-2-methylphenyl)-4-(4-methoxy-3,3-dimethylpiperidin-1-yl)-5,6,7,8-tetrahydropyrido[4,3-d]pyrimidine], for which the IC50 turned out to be 56 nM at human C5aR and 181 nM with CD11b (Homo sapiens).

On to `CO[C@@H]1CCN(c2nc(-c3c(C)ccc4[nH]nc(C)c34)nc3c2CN(c2cc(C(C)C)ccc2C)CC3)C[C@H]1C` [Example 19-AF], for which the figures for the IC50 on human C5aR and in the assay on CD11b (Homo sapiens) were 1 nM and 6 nM, respectively.

As to `Cc1ccc(C(C)C)cc1N1CCc2nc(-c3c(C)ccc4[nH]nc(C)c34)nc(N3CC(N(C)C)C3)c2C1` [Example 65-A, 1-(2-(3,5-Dimethyl-1H-indazol-4-yl)-6-(5-isopropyl-2-methylphenyl)-5,6,7,8-tetrahydropyrido[4,3-d]pyrimidin-4-yl)-N,N-dimethylazetidin-3-amine], the IC50 at human C5aR was 1 nM; in the assay with CD11b (Homo sapiens), 30 nM.

For `CCc1cccc(CC)c1-c1cc(C)c2c(n1)CCN(c1cc(C3CC3)ccc1C)C2` [Example 40-M, 6-(5-cyclopropyl-2-methylphenyl)-2-(2,6-diethylphenyl)-4-methyl-5,6,7,8-tetrahydro-1,6-naphthyridine], the IC50 at human C5aR was 11 nM; in the assay with CD11b (Homo sapiens), 69 nM.

Turning to `Cc1ccc2[nH]nc(C)c2c1-c1nc2c(c(N3CC[C@@H]4OC[C@]4(C)C3)n1)CN(c1c(Cl)c(C3CC3)nn1C)CC2` (racemic) [Example 69-L, (1S*,6S*)-3-(6-(4-chloro-3-cyclopropyl-1-methyl-1H-pyrazol-5-yl)-2-(3,5-dimethyl-1H-indazol-4-yl)-5,6,7,8-tetrahydropyrido[4,3-d]pyrimidin-4-yl)-1-methyl-7-oxa-3-azabicyclo[4.2.0]octane], the IC50 in the assay with CD11b (Homo sapiens) is 54 nM.

As for `[2H]C1([2H])c2c(C)cc(-c3c(C)ccc4[nH]ncc34)nc2CCN1c1cc(C(C)C)ccc1C` [Example 43-A, 6-(5-Isopropyl-2-methylphenyl)-4-methyl-2-(5-methyl-1H-indazol-4-yl)-5,6,7,8-tetrahydro(5,5-^2H2)-1,6-naphthyridine], the IC50 with CD11b (Homo sapiens) was 178 nM.

On to `Cc1ccc(C(C)C)cc1N1CCc2nc(-c3c(C)ccc4[nH]ncc34)cc(C)c2C1` [Example 41-D, 6-(5-Isopropyl-2-methylphenyl)-4-methyl-2-(5-methyl-1H-indazol-4-yl)-5,6,7,8-tetrahydro-1,6-naphthyridine], for which the IC50 with CD11b (Homo sapiens) turned out to be 153 nM.

`Cc1ccc2[nH]nc(C)c2c1-c1nc2c(c(N3CCOC[C@H]3C)n1)CN(c1c(F)c(C3CC3)nn1C)CC2` [Example 76-C, (R)-4-(6-(3-Cyclopropyl-4-fluoro-1-methyl-1H-pyrazol-5-yl)-2-(3,5-dimethyl-1H-indazol-4-yl)-5,6,7,8-tetrahydropyrido[4,3-d]pyrimidin-4-yl)-3-methylmorpholine]: the IC50 with CD11b (Homo sapiens) was 46 nM.

Regarding `CC(=O)N1CCN(c2nc(-c3ccccc3C(F)(F)F)nc3c2CN(c2cc(C(C)C)ccc2C)CC3)[C@H](C)C1` [Example 25-F, (R)-1-(4-(6-(5-isopropyl-2-methylphenyl)-2-(2-(trifluoromethyl)phenyl)-5,6,7,8-tetrahydropyrido[4,3-d]pyrimidin-4-yl)-3-methylpiperazin-1-yl)ethanone], the IC50 at human C5aR was 23 nM.

On to `CCn1nc(C2CC2)c(Cl)c1N1CCc2nc(-c3c(C)ccc4[nH]nc(C)c34)nc(N3CCC3C)c2C1` (single isomer, unassigned) [Example 70-H, 6-(4-chloro-3-cyclopropyl-1-ethyl-1H-pyrazol-5-yl)-2-(3,5-dimethyl-1H-indazol-4-yl)-4-(2-methylazetidin-1-yl)-5,6,7,8-tetrahydropyrido[4,3-d]pyrimidine], for which, in the assay on CD11b (Homo sapiens), the IC50 was determined as 41 nM.

Consider `CC(=O)N1CCN(c2nc(-c3cccc4[nH]cc(C)c34)nc3c2CN(c2cc(C(C)C)ccc2C)CC3)CC12CC2` [Example 53, 1-(7-(6-(5-Isopropyl-2-methylphenyl)-2-(3-methyl-1H-indol-4-yl)-5,6,7,8-tetrahydropyrido[4,3-d]pyrimidin-4-yl)-4,7-diazaspiro[2.5]octan-4-yl)ethanone], for which the IC50 at human C5aR worked out at 18 nM.

Consider `Cc1ccc(C(C)C)cc1N1CCc2nc(-c3cccc4[nH]cc(C)c34)nc(N3CC(N(C)C)C3)c2C1` [Example 17-BG, 1-(6-(5-isopropyl-2-methylphenyl)-2-(3-methyl-1H-indol-4-yl)-5,6,7,8-tetrahydropyrido[4,3-d]pyrimidin-4-yl)-N,N-dimethylazetidin-3-amine], for which the IC50 on human C5aR is 15 nM.

For `Cc1ccc(C(C)C)cc1N1CCc2nc(-c3cccc4[nH]cc(C)c34)nc(N3CCC[C@H](O)C3)c2C1` [Example 17-AV, (S)-1-(6-(5-isopropyl-2-methylphenyl)-2-(3-methyl-1H-indol-4-yl)-5,6,7,8-tetrahydropyrido[4,3-d]pyrimidin-4-yl)piperidin-3-ol], the IC50 on human C5aR came out at 12 nM.

With `CCn1nc(C2CC2)c(Cl)c1N1CCc2nc(-c3c(C)ccc4[nH]nc(C)c34)nc(N3CCC3C)c2C1` (single isomer, unassigned) [Example 70-I, 6-(4-chloro-3-cyclopropyl-1-ethyl-1H-pyrazol-5-yl)-2-(3,5-dimethyl-1H-indazol-4-yl)-4-(2-methylazetidin-1-yl)-5,6,7,8-tetrahydropyrido[4,3-d]pyrimidine], the IC50 in the assay with CD11b was determined as 38 nM.

`Cc1ccc(C(C)C)cc1N1CCc2nc(-c3cccc4[nH]cc(C)c34)nc(N3CC4(COC4)C3)c2C1` [Example 17-BE, 6-(6-(5-isopropyl-2-methylphenyl)-2-(3-methyl-1H-indol-4-yl)-5,6,7,8-tetrahydropyrido[4,3-d]pyrimidin-4-yl)-2-oxa-6-azaspiro[3.3]heptanes]: the IC50 at human C5aR worked out at 415 nM.

Take `Cc1ccc(C(C)C)cc1N1CCc2nc(-c3cccc4[nH]cc(C)c34)nc(N[C@@H](CO)C(C)C)c2C1` [Example 17-M, (R)-2-((6-(5-isopropyl-2-methylphenyl)-2-(3-methyl-1H-indol-4-yl)-5,6,7,8-tetrahydropyrido[4,3-d]pyrimidin-4-yl)amino)-3-methylbutan-1-ol]: the IC50 on human C5aR stood at 30 nM.

For the molecule `COCCN(C)c1cc(-c2c(C)cccc2C)nc2c1CN(c1cc(C(C)C)ccc1C)CC2` [Example 51-D, 2-(2,6-dimethylphenyl)-6-(5-isopropyl-2-methylphenyl)-N-(2-methoxyethyl)-N-methyl-5,6,7,8-tetrahydro-1,6-naphthyridin-4-amine], at human C5aR, the IC50 is 197 nM.
